The values that follow come from US5614370A, “Assay to identify human C5a antagonists and agonists” (Merck & Co., Inc., priority 1994, dated 1997).

Where two headings read alike, the source gives them in different places. Non-standard residues stand in square brackets, D forms with d. Residues, ends and D or L forms follow the SMILES beside them. NMeF = CN[C@@H](Cc1ccccc1)C(=O)O; Cha = N[C@@H](CC1CCCCC1)C(=O)O; dCha = N[C@H](CC1CCCCC1)C(=O)O

For experiment [1], the target named is T1, C5a receptor (Homo sapiens, UniProt P21730).
T1 construct: followed by a 20 μL aliquot of neutrophil membrane; endogenous in cells
T1 sequence (P21730 1-350): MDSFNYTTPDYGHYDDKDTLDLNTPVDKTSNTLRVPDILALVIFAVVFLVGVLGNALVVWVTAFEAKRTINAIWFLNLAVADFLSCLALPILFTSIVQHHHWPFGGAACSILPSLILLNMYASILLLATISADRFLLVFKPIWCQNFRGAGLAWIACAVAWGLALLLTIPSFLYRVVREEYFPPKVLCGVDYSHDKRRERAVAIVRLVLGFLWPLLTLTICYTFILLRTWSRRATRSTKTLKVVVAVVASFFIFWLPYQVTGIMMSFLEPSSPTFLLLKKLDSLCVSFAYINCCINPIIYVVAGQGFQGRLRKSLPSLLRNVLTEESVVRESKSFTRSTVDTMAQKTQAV
Nature of the experiment: Competition binding against 125I-labeled intact C5a on human neutrophil (PMN) membranes. The following applies: Table II; human neutrophil membranes, competition against 125I-C5a; read-out: Binding IC50. The source says: The affinity of these peptides is shown, for example, by radiolabeling intact C5a, and using the unlabeled peptide to compete the labeled C5a from C5a receptor binding sites on cellular membranes. Preparations of polymorphonuclear leukocytes (PMN's) are known to express the C5a receptor, (inhibition of the chemotactic response to C5a of this type of cell is one desirable utility for compounds identified by the instant assay). One method for preparing these membranes is described by Rollins, T. E. et al., [J. Biol. Chem. 264:520-526 (1988); see also U.S. Pat. No. 5,177,190, herein incorporated by reference as a method for isolating and purifying C5a receptor]. Briefly, this involves isolating PMN's in large quantity, disrupting these cells and obtaining the membrane fraction by centrifugation. Protein assay of the membrane preparation allows for standardization of the amount of protein added in any set of membrane binding experiments.
In FIG. 1, unlabeled C013 is used to compete with ^125 I-labeled C5a. […] In FIG. 2, the C013 is ^125 I labeled. Unlabeled C5a and unlabeled C013 are each used to compete the labeled C013 from C5a binding sites on the membranes. […] In FIG. 3a, ^125 I-C5a is competed from its binding site by unlabeled C064 and unlabeled, natural C5a (as opposed to recombinant C5a, which, however, may also obviously may be used for these purposes). […] In FIG. 3b, the inverse experiment is shown, wherein ^125 I-C064 is displaced by unlabeled C064 and unlabeled nC5a.
Hexapeptides within this class differing only at position X have similar affinities for the C5a receptor. As measured in competition binding experiments against ^125 I-C5a on human neutrophil membranes their IC50 's varied by only a factor of 3, from 25 to 80 nM (Table II):
^2 Binding experiments were carried out with human neutrophil
Binding is initiated by an addition of 20 μL of PMN membrane (typically 0.5 μg of protein) to each tube. After incubation for 90 min. at room temperature 2 ml of 0.05 M HEPES, pH 7.2, containing 0.5% BSA are added to the tube, the contents vortexed and filtered over a Whatman GF/C filter which has been soaked in 0.3% polyethylenimine. An additional 2 ml of buffer are added to the tube and used to wash the filter. All of the test samples are dissolved in DMSO, another water miscible organic solvent, or in an aqueous solvent. Non-specific background was determined by inclusion of a 100-fold excess of unlabeled C5a.
The percent inhibition is calculated according to the following formula: [formula]
Iodination of C5a was carded out with the use of chloramine T. (Rollins, T.E., and Springer, M.S. (1985) J. Biol. Chem. 260, 7157-7160). […] Concentrations of C5a were determined by amino acid analysis and by RIA (Amersham Corp.). Membranes were prepared from human PMN as described by Rollins, T.E., Sciliano, S and Springer, M.S., J. Biol Chem 264 520-526 (1988).

Experiment [2] relates to human neutrophils. Nature of the experiment: Degranulation, myeloperoxidase (MPO) release from human neutrophils (agonism). In kind it is cell-based. The note with it: FIG. 5A. The procedure:
(§1) FIG. 5A and 5B. Degranulation and Ca^2+ responses to the hexapeptides. […] The ED50 's for the degranulation are: C5a, 0.5 nM; C028, 0.2 μM; C026, 1 μM. C5a, maximally, released 57% of the total cellular content of MPO. The ability of these molecules to elicite a Ca^2+ -flux is shown in B. The concentrations used for C028 (10 μM), C026 (10 μM), C061 (100 μM) are those which produce a maximal flux. A saturating concentration was also used for C5a (1 nM).
(§2) This assay was performed on human neutrophils as previously reported and it is a measure of C5a or peptide induced exocytosis (Rollins, T. E. and Springer, M. S. (1985) J. Biol. Chem. 260, 7157-7160).
The functional properties of two of the peptides, C026, and C028, were originally described by Mollison et. al (Mollison, K. W., Krause, R. A., Fey, T. A., Miller, L., Wiedeman, P. e., Kawai, M., Lane, B., Luly, J. R. and Carter, G. W. (1992) FASEB J. 6, A2058). […] We have reinvestigated the degranulating activities of these peptides as measured by the release of myeloperoxidase (MPO) from human neutrophils. […] The EC50 /IC50 (degranulation/binding) for C028 is 8, the same as that measured for C5a (Table II, FIG. 5A). […] However, the difference in activity between C026 and C028 is significant and reproducible. Since the structural difference between the two is the substitution of an aromatic for an aliphatic residue (Phe for Cha) we chose to make additional changes at position 5 which further increased aromaticity. […] To further examine whether the differences in activity between the peptides reflects the increased aromaticity we synthesized a molecule with Leu, an aliphatic amino acid, at position 5 (C068, Table II).

The subject of experiment [3] is human neutrophils. Nature of the experiment: Ligand induced Ca2+ flux (Indo-1 fluorescence). The following applies: maximal effects, peptide 10-100 μM vs 1 nM C5a, FIG. 5B. It counts as cell-based. As for the experimental part: as §1
(§3) Ligand induced Ca^2+ fluxes were measured by following the change in Indo-1 induced fluorescence on a FACS analyzer as previously described (Van Riper, G., Siciliano, S. J., Fischer, P. A., Meurer, R., Springer, M. S. and Rosen, H. (1993) J. Exp. Med. 177, 851-856.).
FIG. 5B compares the maximal effects of each peptide (10-100 μM) with the response induced by C5a (1 nM).
For orientation: Calcium flux is commonly read through the fluorescence of an indicator in the cells.

For experiment [4], the target named is T1, C5a receptor. Nature of the experiment: Agonist activity over all C5a induced responses (chemotaxis, MPO release, calcium flux, GTPase activity, GTPγ-S binding). In kind it is cell-based. The following applies: C089 tested up to and including 100 μM. The procedure: The EC50 measures the concentration of compound at which a 50% maximal stimulation of a given biological response induced by C5a is achieved (chemotaxis, MPO release, calcium flux, GTPase activity or GTPγ-S binding), and the IC50 is the concentration at which 50% maximal inhibition of C5a binding is achieved.
as §2, §3
This assay is a modification of the procedure described by Sims et. al. (Sims, T. J., Geissler, F. T. and Page, R. C. (1985) J. lmmunol. Meth. 78, 279-291 ). Chemotaxis was assayed in a 48 well Neuro Probe chamber (Neuro Probe, Bethesda, MD) using ^51 Cr-labelled cells. […] After preforming a gradient for 30 minutes at 37° C., 2×10^5 labelled cells were added to the upper chamber and allowed to migrate at 37° C. for one hour. The upper two polycarbonate filters were then discarded and the formed wells cut from the nitrocellulose membrane. The radioactivity present in these filters is a measure of the number of cells that migrated through both polycarbonate filters.
The method of Kupper et al. (Kupper, R. W., Dewald, B., Jakobs, K. H., Baggiolini, M. and Gierschik, P. (1992) Biochem. J. 282, 429-434) was adapted for use in microtiter plates. Neutrophil membranes were suspended in 50 mM triethanolamine-HCl, 5 mM MES, pH 7.3, containing 1 mM EDTA, 5 mM MgCl2, 143 mM NaCl, 0.16 % BSA, 1 mM ouabain, 1 mM AMP-PNP, 0.5 mM ATP, 2.5 U/mL creatine phosphokinase,. 10 mM creatine phosphate, 0.1 mM PMSF and 10 ng/mL each of leupeptin, aprotinin and chymostatin. 50 μL of membranes containing 1-5 μg protein were added to 50 μL of the same buffer containing the test agent and 0.25 μM [γ-^32 P]-GTP (2,000 cpm/pmol) in the wells of a U-shaped microtiter plate. After incubation for 15-30 rain at 29° C., 100 μL of a 10% (w/v) charcoal suspension in 100 mM H3 PO4 was added and plates were centrifuged at 2000 rpm for 5 min. 100 μL of the supernatant was transferred to an Optiplate microtiter plate and 100 μL of Microscint-40 scintillation cocktail was added. Plates were counted in a Packard TopCount microtiter plate counter.

In experiment [5] the target is T1, C5a receptor. In kind it is binding. The note with it: 293 cells present, FIG. 4A; PMN membranes. The source says:
FIGS. 4A, 4B and 4C. (A) Competition binding curve using ^125 I-labeled intact C5a and unlabeled C013 peptide in the presence and absence of protease secreting cells.
(B) Competition binding curve using ^125 I-labeled intact C5a and unlabeled C028 peptide in the presence and absence of protease secreting cells.
(C) Competition binding curve using ^125 I-labeled intact C5a and unlabeled C013 and C028 peptides in the presence and absence of protease secreting cells in the presence or absence of protease inhibitor.
We therefore attempted, and succeeded, to improve on this radioligand by identifying a compound with lower non-specific binding, and higher binding affinity. We developed the compound C013, ^125 I-Tyr Phe Lys Ala Cha Gly Leu dPhe Arg, SEQ.ID:2:, which had about 30-fold the binding affinity of ^125 I-C009.

Experiment [6] addresses C5a receptor. The following applies: cited from earlier work.
Experiment [7] has as its system C5a receptor. The note with it: literature; cited from earlier work.

`CN[C@@H](Cc1ccccc1)C(=O)N[C@@H](CCCCN)C(=O)N1CCC[C@H]1C(=O)N[C@H](CC1CCCCC1)C(=O)N[C@@H](CC(C)C)C(=O)N[C@H](CCCNC(=N)N)C(=O)O` [C068] (H-[NMeF]KP[dCha]L[dR]-OH): the IC50 at C5a receptor [1] came to 60 nM. Also, in the experiment on human neutrophils [2], the “degranulating activity in words” value is “full agonist, as measured both by maximal release and ED50 /IC50 ratio”. Also, in the experiment on human neutrophils [3], the “Ca2+ response in words” value is reported as “full agonist in this assay”. In addition, at C5a receptor [4], the “agonist activity in words, all responses” value was “almost complete agonists of all of these responses”.
As for `CC(C)C[C@H](NC(=O)CNC(=O)[C@H](CC1CCCCC1)NC(=O)[C@H](C)NC(=O)[C@H](CCCCN)NC(=O)[C@@H](N)Cc1ccccc1)C(=O)N[C@H](Cc1ccccc1)C(=O)N[C@@H](CCCNC(=N)N)C(=O)O` [C013a] (H-FKA[Cha]GL[dF]R-OH), on C5a receptor [5], the “loss of potency in displacement of 125I-C5a in the presence of 293 cells” value is listed as “about 100 fold”.
Take “natural C-terminus of C5a: synthetic peptide consisting of the C-terminal eight amino acids of C5a (HKDMQLGR; C5a anaphylatoxin; UniProt P01031 744-751, looked up, fragment) [reference compound]”: on C5a receptor [6] (C-terminal eight residues of C5a, read-out: Ki, inhibition of C5a binding), the Ki is 300000 nM. In the experiment with C5a receptor [7], the “agonist properties in words” value was “has agonist properties”.
With “C-terminal C5a octapeptide: C-terminal C5a octapeptide which retained receptor binding activity (Kawai et al.) (HKDMQLGR; C5a anaphylatoxin; UniProt P01031 744-751, looked up, fragment)”, the “C5a binding in words” value in the experiment with C5a receptor [6] (literature) is reported as “retained receptor binding activity”.

B1: Phe for His67 substituted C5a peptide: Phe for His67 substituted C5a peptide (Mollison et al.) (peptide, UniProt P01031 678-751, looked up, variant H67F)
C5a anaphylatoxin: TLQKKIEEIAAKYKHSVVKKCCYDGACVNNDETCEQRAARISLGPRCIKAFTECCVVASQLRANISFKDMQLGR
modifications: C5a anaphylatoxin
Regarding B1, the Ki at C5a receptor [6] (literature, read-out: Ki for C5a binding) was 260 nM.

What is called IC50 is the midpoint of a concentration-inhibition curve. A word on the Ki: it is a measure of affinity in units of concentration, obtained from inhibition or displacement.
